Test results taken from patent publication US7329652B2, “Diaminotriazole compounds useful as protein kinase inhibitors” (Vertex Pharamaceuticals Incorporated, priority 2004, dated 2008).

Legend:
JAK-2 enzyme = JAK-2 enzyme (Homo sapiens, UniProt O60674); assay: JAK2 inhibition assay (radiometric 33P filter assay); assay type: biochemical; details: 15 μM poly(Glu)4Tyr, 12 μM ATP; read-out: JAK2 inhibition data (Ki)
Method: (§1) Compounds were screened for their ability to inhibit JAK using the assay shown below. Reactions were carried out in a kinase buffer containing 100 mM HEPES (pH 7.4), 1 mM DTT, 10 mM MgCl2, 25 mM NaCl, and 0.01% BSA.
(§2) Substrate concentrations in the assay were 5 μM ATP (200 uCi/μmole ATP) and 1 μM poly(Glu)4Tyr. Reactions were carried out at 25° C. and 1 nM JAK3.
(§3) To each well of a 96 well polycarbonate plate was added 1.5 μl of a candidate JAK3 inhibitor along with 50 μl of kinase buffer containing 2 μM poly(Glu)4Tyr and 10 μM ATP. This was then mixed and 50 μl of kinase buffer containing 2 nM JAK3 enzyme was added to start the reaction. After 20 minutes at room temperature (25° C.), the reaction was stopped with 50 μl of 20% trichloroacetic acid (TCA) that also contained 0.4 mM ATP. The entire contents of each well were then transferred to a 96 well glass fiber filter plate using a TomTek Cell Harvester. After washing, 60 μl of scintillation fluid was added and ^33P incorporation detected on a Perkin Elmer TopCount.
The assays were as described above in Example 25 except that JAK-2 enzyme was used, the final poly(Glu)4Tyr concentration was 15 μM, and final ATP concentration was 12 μM.

JAK3 = target: T1, JAK3 (Homo sapiens, UniProt P52333); assay: JAK3 inhibition assay (radiometric 33P filter assay); assay type: biochemical; details: 1 μM poly(Glu)4Tyr, 5 μM ATP, 1 nM JAK3, 25° C.; read-out: JAK3 inhibition data (Ki)
T1 sequence (P52333 1-1124): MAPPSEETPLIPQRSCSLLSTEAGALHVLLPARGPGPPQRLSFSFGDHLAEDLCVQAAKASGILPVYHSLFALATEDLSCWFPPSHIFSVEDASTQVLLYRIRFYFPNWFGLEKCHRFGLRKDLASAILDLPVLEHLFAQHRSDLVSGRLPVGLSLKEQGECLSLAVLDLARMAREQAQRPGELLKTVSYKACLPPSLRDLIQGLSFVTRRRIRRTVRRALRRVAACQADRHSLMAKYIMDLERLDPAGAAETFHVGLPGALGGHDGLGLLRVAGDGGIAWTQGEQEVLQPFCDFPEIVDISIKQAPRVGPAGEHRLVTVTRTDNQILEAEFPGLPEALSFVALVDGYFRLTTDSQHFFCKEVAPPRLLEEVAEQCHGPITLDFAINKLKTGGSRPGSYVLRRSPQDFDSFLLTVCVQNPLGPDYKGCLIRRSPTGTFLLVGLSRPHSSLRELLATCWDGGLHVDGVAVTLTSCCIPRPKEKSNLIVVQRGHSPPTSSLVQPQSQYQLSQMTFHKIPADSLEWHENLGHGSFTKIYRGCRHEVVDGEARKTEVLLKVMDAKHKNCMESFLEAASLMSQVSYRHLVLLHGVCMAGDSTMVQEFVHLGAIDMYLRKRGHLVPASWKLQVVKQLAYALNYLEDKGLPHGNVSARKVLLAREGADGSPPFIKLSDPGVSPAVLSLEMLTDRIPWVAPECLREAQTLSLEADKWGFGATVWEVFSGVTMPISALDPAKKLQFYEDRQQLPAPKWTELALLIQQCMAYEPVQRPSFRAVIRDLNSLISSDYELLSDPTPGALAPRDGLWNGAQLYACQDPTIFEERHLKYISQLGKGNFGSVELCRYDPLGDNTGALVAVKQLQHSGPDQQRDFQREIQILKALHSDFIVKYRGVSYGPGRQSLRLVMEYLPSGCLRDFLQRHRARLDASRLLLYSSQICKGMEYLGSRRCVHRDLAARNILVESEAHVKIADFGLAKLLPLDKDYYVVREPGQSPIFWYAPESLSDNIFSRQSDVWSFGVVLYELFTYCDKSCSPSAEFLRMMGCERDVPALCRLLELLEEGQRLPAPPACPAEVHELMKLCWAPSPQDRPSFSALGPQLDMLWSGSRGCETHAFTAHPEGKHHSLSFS
Method: as §1, §2, §3

Sequence of JAK-2 enzyme (O60674 whole entry, species assumed): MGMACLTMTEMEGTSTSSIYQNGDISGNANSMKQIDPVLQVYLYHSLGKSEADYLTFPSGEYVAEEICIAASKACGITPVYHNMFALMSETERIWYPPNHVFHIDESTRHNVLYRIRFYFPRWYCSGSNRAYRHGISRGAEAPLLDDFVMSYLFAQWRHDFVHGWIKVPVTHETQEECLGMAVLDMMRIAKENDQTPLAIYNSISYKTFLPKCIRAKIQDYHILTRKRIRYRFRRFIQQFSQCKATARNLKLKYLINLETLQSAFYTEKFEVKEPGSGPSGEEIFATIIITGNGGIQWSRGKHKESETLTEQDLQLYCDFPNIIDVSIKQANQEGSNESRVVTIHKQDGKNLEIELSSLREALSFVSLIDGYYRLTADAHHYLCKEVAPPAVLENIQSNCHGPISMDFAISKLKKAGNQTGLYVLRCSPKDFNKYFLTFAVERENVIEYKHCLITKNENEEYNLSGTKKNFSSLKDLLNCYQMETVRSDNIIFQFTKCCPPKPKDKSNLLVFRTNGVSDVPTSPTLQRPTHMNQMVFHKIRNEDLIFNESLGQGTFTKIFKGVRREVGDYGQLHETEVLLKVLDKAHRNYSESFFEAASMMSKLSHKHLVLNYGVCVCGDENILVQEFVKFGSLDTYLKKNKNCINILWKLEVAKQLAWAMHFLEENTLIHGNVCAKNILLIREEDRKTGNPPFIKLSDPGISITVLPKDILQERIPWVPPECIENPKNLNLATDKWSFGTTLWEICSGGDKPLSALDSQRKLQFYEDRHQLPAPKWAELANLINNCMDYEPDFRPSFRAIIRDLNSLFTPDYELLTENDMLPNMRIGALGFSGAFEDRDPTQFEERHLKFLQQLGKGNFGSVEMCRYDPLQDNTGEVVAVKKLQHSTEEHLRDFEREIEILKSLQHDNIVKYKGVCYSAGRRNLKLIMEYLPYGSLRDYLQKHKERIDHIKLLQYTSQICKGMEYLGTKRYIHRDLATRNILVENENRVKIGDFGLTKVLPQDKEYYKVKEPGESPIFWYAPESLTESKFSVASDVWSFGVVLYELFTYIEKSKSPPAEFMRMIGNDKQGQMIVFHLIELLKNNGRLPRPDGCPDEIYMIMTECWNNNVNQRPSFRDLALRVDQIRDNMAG

| Ki (JAK-2 enzyme) [nM] | Ki (JAK3) [nM] | Structure (SMILES) |
| --- | --- | --- |
| 50 to 500 | < 50 | CC(=O)N1CCCN(c2cc(-n3nc(Nc4ccc(N5CCOCC5)cc4)nc3N)ccn2)CC1 [Compound 1] |
| < 50 | < 50 | CC(=O)N1CCCN(c2cc(-n3nc(Nc4ccc(N5CCOCC5)cc4)nc3N)ncn2)CC1 [Compound 2] |
| < 50 | < 50 | Nc1nc(Nc2ccc(N3CCOCC3)cc2)nn1-c1cc(N2CCNC(=O)CC2)ncn1 [Compound 3] |
| < 50 | < 50 | COCC(=O)N1CCCN(c2cc(-n3nc(Nc4ccc(N5CCOCC5)cc4)nc3N)ncn2)CC1 [Compound 5] |
| < 50 | < 50 | CC(=O)CC(=O)N1CCCN(c2cc(-n3nc(Nc4ccc(N5CCOCC5)cc4)nc3N)ncn2)CC1 [Compound 6] |
| < 50 | < 50 | CS(=O)(=O)N1CCCN(c2cc(-n3nc(Nc4ccc(N5CCOCC5)cc4)nc3N)ncn2)CC1 [Compound 7] |
| < 50 | < 50 | COC(=O)N1CCCN(c2cc(-n3nc(Nc4ccc(N5CCOCC5)cc4)nc3N)ncn2)CC1 [Compound 8] |
| < 50 | < 50 | Nc1nc(Nc2ccc(N3CCOCC3)cc2)nn1-c1cc(N2CCCN(C(=O)CC(F)(F)F)CC2)ncn1 [Compound 9] |
| < 50 | < 50 | CC(=O)N1CCCN(c2cc(-n3nc(Nc4ccc(N(C)C)cc4)nc3N)ncn2)CC1 [Compound 10] |
| < 50 | < 50 | CC(=O)Nc1ccc(Nc2nc(N)n(-c3cc(N4CCCN(C(C)=O)CC4)ncn3)n2)cc1 [Compound 11] |
| < 50 | < 50 | CCN(CC)c1ccc(Nc2nc(N)n(-c3cc(N4CCCN(C(C)=O)CC4)ncn3)n2)cc1 [Compound 12] |
| < 50 | < 50 | CC(=O)N1CCCN(c2cc(-n3nc(Nc4ccc(N5CCCCC5)cc4)nc3N)ncn2)CC1 [Compound 13] |
| 50 to 500 | 50 to 500 | Nc1nc(Nc2ccc(N3CCOCC3)cc2)nn1-c1ccnc(N2CCCOCC2)c1 [Compound 14] |
| < 50 | < 50 | Nc1nc(Nc2ccc(N3CCOCC3)cc2)nn1-c1cc(N2CCCCCC2)ncn1 [Compound 15] |
| < 50 | < 50 | CC(=O)N1[C@H](C)CN(c2cc(-n3nc(Nc4ccc(N5CCOCC5)cc4)nc3N)ncn2)C[C@@H]1C [Compound 16] |
| < 50 | < 50 | CC(=O)N1[C@H](C)CN(c2cc(-n3nc(Nc4ccc(N5CCOCC5)cc4)nc3N)ccn2)C[C@@H]1C [Compound 17] |
| < 50 | < 50 | Nc1nc(Nc2ccc(N3CCOCC3)cc2)nn1-c1ccnc(N2CC3CCC(CC3)C2)c1 [Compound 18] |
| < 50 | < 50 | Nc1nc(Nc2ccc(N3CCOCC3)cc2)nn1-c1ccnc(N2CCCCCC2)c1 [Compound 19] |
| < 50 | < 50 | CC(=O)N1CCCN(c2cc(-n3nc(Nc4ccc(N)cc4)nc3N)ncn2)CC1 [Compound 20] |
| < 50 | < 50 | CC(=O)N1CCCN(c2cc(-n3nc(Nc4ccc(NC(=O)OC(C)(C)C)cc4)nc3N)ncn2)CC1 [Compound 21] |
| < 50 | < 50 | Nc1nc(Nc2ccc(N3CCOCC3)cc2)nn1-c1cc(N2CCN3C(=O)CC[C@H]3C2)ncn1 [Compound 22] |
| < 50 | < 50 | Nc1nc(Nc2ccc(N3CCOCC3)cc2)nn1-c1cc(N2CCN3C(=O)CC[C@@H]3C2)ncn1 [Compound 23] |

| Ki (JAK-2 enzyme) [nM] | Ki (JAK3) [nM] | Structure (SMILES) |
| --- | --- | --- |
| < 50 | < 50 | CC(=O)N1CCCN(c2cc(-n3nc(Nc4ccc(NC(=O)C5CCC(C)CC5)cc4)nc3N)ncn2)CC1 (stereo not drawn) [Compound 24] |
| 50 to 500 | 50 to 500 | CCCC1CCC(C(=O)Nc2ccc(Nc3nc(N)n(-c4cc(N5CCCN(C(C)=O)CC5)ncn4)n3)cc2)CC1 (stereo not drawn) [Compound 25] |
| < 50 | < 50 | CC(=O)N1CCCN(c2cc(-n3nc(Nc4ccc(NC(=O)C5CCOCC5)cc4)nc3N)ncn2)CC1 [Compound 26] |
| < 50 | < 50 | CC(=O)N1CCCN(c2cc(-n3nc(Nc4ccc(NC(=O)c5cccnc5)cc4)nc3N)ncn2)CC1 [Compound 27] |
| < 50 | < 50 | CC(=O)N1CCCN(c2cc(-n3nc(Nc4ccc(NC(=O)c5ccncc5)cc4)nc3N)ncn2)CC1 [Compound 28] |
| < 50 | < 50 | CC(=O)N1CCCN(c2cc(-n3nc(Nc4ccc(NC(=O)c5ccoc5)cc4)nc3N)ncn2)CC1 [Compound 29] |
| < 50 | < 50 | CC(=O)N1CCCN(c2cc(-n3nc(Nc4ccc(NC(=O)c5ccco5)cc4)nc3N)ncn2)CC1 [Compound 30] |
| < 50 | < 50 | COC1CCC(C(=O)Nc2ccc(Nc3nc(N)n(-c4cc(N5CCCN(C(C)=O)CC5)ncn4)n3)cc2)CC1 (stereo not drawn) [Compound 31] |
| < 50 | < 50 | COC1CCCC(C(=O)Nc2ccc(Nc3nc(N)n(-c4cc(N5CCCN(C(C)=O)CC5)ncn4)n3)cc2)C1 (stereo not drawn) [Compound 32] |
| < 50 | < 50 | CC(=O)N1CCCN(c2cc(-n3nc(Nc4ccc(N5C[C@@H](C)O[C@@H](C)C5)cc4)nc3N)ncn2)CC1 [Compound 33] |
| < 50 | < 50 | CC(=O)N1CCCN(c2cc(-n3nc(Nc4ccc(N5CCN(C(=O)OC(C)(C)C)CC5)cc4)nc3N)ncn2)CC1 [Compound 34] |
| < 50 | < 50 | CC(=O)Nc1ccc(Nc2nc(N)n(-c3ccnc(N4C[C@@H](C)N(C(C)=O)[C@@H](C)C4)c3)n2)cc1 [Compound 35, N-(4-{1-[2-(4-Acetyl-3,5-dimethyl-piperazin-1-yl)-pyridin-4-yl]-5-amino-1H-[1,2,4]triazol-3-ylamino}-phenyl)-acetamide] |
| < 50 | < 50 | CC(=O)N1CCCN(c2cc(-n3nc(Nc4ccc(N5CCN(C(=O)C(C)(C)C)CC5)cc4)nc3N)ncn2)CC1 [Compound 36] |
| < 50 | < 50 | CCCC(=O)N1CCN(c2ccc(Nc3nc(N)n(-c4cc(N5CCCN(C(C)=O)CC5)ncn4)n3)cc2)CC1 [Compound 37] |
| < 50 | < 50 | CC(=O)N1CCCN(c2cc(-n3nc(Nc4ccc(N5CCN(C(=O)CC(C)C)CC5)cc4)nc3N)ncn2)CC1 [Compound 38] |
| < 50 | < 50 | CC(=O)N1CCCN(c2cc(-n3nc(Nc4ccc(N5CCN(C(=O)C6CC6)CC5)cc4)nc3N)ncn2)CC1 [Compound 39] |
| < 50 | < 50 | CC(=O)N1CCCN(c2cc(-n3nc(Nc4ccc(N5CCN(C(=O)C6CCC6)CC5)cc4)nc3N)ncn2)CC1 [Compound 40] |
| < 50 | < 50 | CC(=O)N1CCCN(c2cc(-n3nc(Nc4ccc(N5CCN(C(=O)C6CCOCC6)CC5)cc4)nc3N)ncn2)CC1 [Compound 41] |
| < 50 | < 50 | CC(=O)N1CCCN(c2cc(-n3nc(Nc4ccc(N5CCNCC5)cc4)nc3N)ncn2)CC1 [Compound 42] |
| < 50 | < 50 | CC(=O)N1CCCN(c2cc(-n3nc(Nc4ccc(N5CCN(C(=O)OC6CCOC6)CC5)cc4)nc3N)ncn2)CC1 (stereo not drawn) [Compound 43] |
| < 50 | < 50 | CC(=O)N1CCCN(c2cc(-n3nc(Nc4ccc(N5CCN(C(=O)C(C)C)CC5)cc4)nc3N)ncn2)CC1 [Compound 44] |
| < 50 | – | CC(=O)N1[C@H](C)CN(c2cc(-n3nc(Nc4ccc(NC(=O)O[C@@H]5C[C@@H](C)CC[C@@H]5C(C)C)cc4)nc3N)ncn2)C[C@@H]1C [Compound 83] |
